Values after ≈ are worked out from the molar mass of the structure shown.
How the values were obtained:
[1] = tested on: P. falciparum chloroquine resistant strain (RKL-9); assay: WHO Mark III schizont maturation inhibition assay, chloroquine resistant strain; type: cell-based, Plasmodium falciparum; conditions: for Selective index (SI) P.falciparum chloroquine^R (RKL-9): SI = CC50 (HeLa)/IC50 (RKL-9); for % Schizont maturation inhibition ± SD (RKL-9): Conc. = 6.25 μg/mL; for Resistance Index (RI) IC50 (RKL-9)/IC50 (MRC-2): ratio of IC50 resistant / sensitive strain; for P. falciparum Chloroquine^R Strain (RKL-9) IC50 / P. falciparum Chloroquine^R Strain (RKL-9) IC90: schizont maturation, ring stage
Description: (§1) These strains were perpetuated in vitro in continuous culture according to the method of Trager and Jensen with slight modifications. Briefly, both sensitive and resistant strains of P. falciparum were maintained in A+ erythrocytes in RPMI-1640 medium (having glutamine, but without any sodium bicarbonate) comprising 1.00 g of dextrose, 5.94 g of HEPES buffer, 40.00 mg of gentamycin. Additionally supplemented with 5% sodium bicarbonate and 10% (v/v) inactivated human AB+ serum then incubated in gas mixture of 5% CO2, 5% O2 and 90% N2 at 37 °C. Parasitized erythrocytes at initial 5% haematocrit were suspended in above mentioned culture medium and parasitaemia was regularly checked to maintain level between 2 and 4% with further sub-culturing for parasitaemia beyond 5%. Growth and multiplication of parasite was monitored by microscopy using Giemsa-stained slides.
(§2) To obtain ring stages of the parasite, the cultures were synchronized using D-sorbitol. The cultures, with majority of ring stages, were treated with equal volume of aqueous 5% D-sorbitol for 5 min and then after centrifugation pellet were suspended in complete medium and fresh erythrocytes synchronized culture with 1% parasitaemia and 5% haematocrit were used for compound concentration response assay.
(§3) The concentration of each test compound needed to hinder multiplication of parasites by 50% (IC50) against P. falciparum strains were obtained through concentration response assay performed in 96-well sterile tissue culture plates. Synchronized parasite cultures were applied to different doses of each compound. Dilutions were performed in gentamycin-free culture medium, and incubated at 37 °C having gaseous mixture (5% CO2, 5% O2 and 90% N2) supply for 24 h. The results were expressed as IC50 values computed from HN-NonLin Regression analysis, as well as mean percentage inhibition ± standard error examined by thick smear Giemsa stained slides. %ParasiteInhibition29,30=100-TotalnumberofSchizontsintestwells/TotalnumberofSchizontsincontrolwell∗100
(§4) Parasite at ring stage was used for compound concentration response assay with parasitaemia of 1% at 5% haematocrit. […] The IC50 and IC90 values of all compounds were determined and the resistance index between the two sensitive and resistant strains was calculated (Table 2). […] The percentage inhibition in schizont maturation was also calculated after incubation of ring stage P. falciparum till 24 h at the same range of drug concentrations (Table 3).

[2] = MTT cytotoxicity / cell viability assay; conditions: human, HeLa cells
Description: (§5) Cytotoxicity of the compounds on mammalian cells were accomplished employing HeLa cell line (NCCS, Pune) cultured in DMEM supplemented with 10% FBS by the MTT (3-(4,5-dimethylthiazol-2-yl)-2,5-diphenyltetrazolium bromide) microenzymatic method with certain modifications [32]. Briefly, cells (10^4 cells/200 μL/well) were seeded into 96-well flat-bottom sterile tissue culture plates in complete medium. After 24 h of seeding, the test compounds at different dilutions were added and kept for another 24 h in a humidified chamber with 5% CO2 at 37 °C. Twenty microlitres of MTT (5.00 mg/mL in 1XPBS) stock solution were pipetted into each well, mixed and incubated for at least 3–4 h. After incubation, the plates were centrifuged at 1500 rpm for 5 min. The supernatant was disposed cautiously and 100 μL of DMSO were added to each well to lyse the cell and dissolve the insoluble purple formazan product into a coloured solution. Absorbance was taken at 570 nm to determine formazan formation as a measurement of cell viability. Experiments were performed in triplicate.

[3] = tested on: P. falciparum chloroquine sensitive strain (MRC-2); assay: microbe, parasite or virus in culture; conditions: for % Schizont maturation inhibition ± SD (MRC-2): Conc. = 6.25 μg/mL; for % Schizont maturation inhibition ± SD (MRC-2) / P. falciparum Chloroquine^s Strain (MRC-2) IC50 / P. falciparum Chloroquine^s Strain (MRC-2) IC90: 24 h; for Selective index (SI) P.falciparum chloroquine^s (MRC-2): SI = CC50 (HeLa)/IC50 (MRC-2); for P. falciparum Chloroquine^s Strain (MRC-2) IC50 / P. falciparum Chloroquine^s Strain (MRC-2) IC90: schizont maturation, ring stage
Description: as §1, §2, §3, §4

[4] = tested on: haemozoin (β-haematin) production in P. falciparum cultures; assay: Haemozoin inhibition assay in P. falciparum cultures; type: cell-based, Plasmodium falciparum; conditions: drug near IC50 concentration, 48 h; untreated control 547.61 ± 9.52
Description: Briefly, the test cultures were centrifuged for 5–10 min at 1300 rpm to dispose of the culture medium. Infected erythrocyte pellet (mingled of β-haematin and erythrocyte membrane) were exposed to 0.01% saponin lysis for 10 min at 25 °C to lyse erythrocyte to release parasites. […] The haemozoin content was quantified by taking the absorbance at 400 nm and using a standard curve prepared from β-haematin. The amount of haemozoin formed in relation to control was calculated. All assays were performed in triplicate.

Description for HeLa cell line: as §5
Description for in vitro: Briefly, fresh erythrocytes were centrifuged for 5 min at 1600 rpm for at least thrice in PBS and then the remaining pellet was re-suspended in PBS at 2% hematocrit. One hundred microlitres of this suspended pellet was added to 96-well sterile culture plate having test compounds at different desired concentrations. PBS alone (for baseline values) and 0.4% Triton X-100 in PBS (for 100% haemolysis) were employed as controls. After keeping at 37 °C for 3 h, the test samples were centrifuged and the supernatant was used for determination of the haemolytic activity quantified in terms of haemoglobin release as monitored spectrophotometrically by taking absorbance at 415 nm [33]. The experiment was done in triplicate and the mean ± SD was calculated [33, 34]. %Haemolysis=[Absorbanceofsample415nm-Absorbanceofblanksample415nm/Absorbanceofpositivecontrol415nm]∗100

IC50 ([1]; Plasmodium falciparum, read-out: P. falciparum Chloroquine^R Strain (RKL-9) IC50, artemisinin, unit ng/mL) [ng/mL]	IC90 ([1]; Plasmodium falciparum, read-out: P. falciparum Chloroquine^R Strain (RKL-9) IC90, artemisinin, unit ng/mL) [ng/mL]	SMILES	hemolysis at 3 h, 12.5 ng/mL (in vitro) [%]	inhibition at 0.00625 µg/mL ([1]; Plasmodium falciparum, artemisinin, Conc. = 6.25 ng/mL, 24 h, read-out: % Schizont maturation inhibition ± SD (RKL-9)) [%]	Selective index (SI) P.falciparum chloroquine^R (RKL-9) [1]	CC50 at 24 h [2] [µg/mL]	viability at 24 h, 12.5 ng/mL [2] [%]	% Schizont maturation inhibition ± SD (RKL-9) ([1]; 24 h) [%]	Resistance Index (RI) IC50 (RKL-9)/IC50 (MRC-2) [1]	P. falciparum Chloroquine^R Strain (RKL-9) IC50 ([1]; 24 h) [µg/mL]	P. falciparum Chloroquine^R Strain (RKL-9) IC90 ([1]; 24 h) [µg/mL]	HeLa Cell CC50 (HeLa cell line) [µg/mL]	% Schizont maturation inhibition ± SD (MRC-2) [3] [%]	Selective index (SI) P.falciparum chloroquine^s (MRC-2) [3]	P. falciparum Chloroquine^s Strain (MRC-2) IC50 [3] [µg/mL]	P. falciparum Chloroquine^s Strain (MRC-2) IC90 [3] [µg/mL]	Amount of haemozoin production [4] [ng/mL]
0.15 (≈ 0.531 nM)	0.15 (≈ 0.531 nM)	C[C@@H]1CC[C@H]2[C@@H](C)C(=O)O[C@@H]3O[C@@]4(C)CC[C@@H]1[C@]32OO4 [ART, artemisinin, reference compound]	1.94 ± 0.026	87.9 ± 2.12	327.4	0.0491 (≈ 174 nM)	58.92 ± 0.06										
		COc1cc(OC)c(C(=O)/C=C/c2ccc(OC)c(OC)c2)c(OC)c1 [Chalcone 1]			18.96			49.66 ± 25.46	0.68	0.23	1.42	4.36	82.43 ± 20.51	12.82	0.34	5.54	
		COc1ccc(C=CC(=O)c2cc(OC)ccc2OC)cc1 [Chalcone 2]			7.57			58.02 ± 21.21	1.08	0.14	0.36	1.06	71.76 ± 10.61	8.15	0.13	0.51	464.28 ± 11.9
		COc1ccc(OC)c(C(=O)C=Cc2ccc3c(c2)OCO3)c1 [Chalcone 3]			26.86			63.71 ± 2.83	1.71	0.29	1.15	7.79	59.26 ± 4.95	45.82	0.17	0.75	
		COc1cc(C(=O)C=Cc2ccc(F)cc2)cc(OC)c1OC [Chalcone 4]			1.65			57.69 ± 7.78	3.40	0.51	2.26	0.84	47.48 ± 17.68	5.60	0.15	0.40	
		COc1cc(C(=O)C=Cc2ccc(N(C)C)cc2)cc(OC)c1OC [Chalcone 5]			36.74			40 ± 20.51	1.43	0.23	0.92	8.45	58.65 ± 7.78	52.81	0.16	1.08	
